Experimental data from article PMC11984388, “A brain-accessible peptide modulates stroke inflammatory response and neurotoxicity by targeting BDNF-receptor TrkB-T1 specific interactome” (Theranostics, 2025).
Residues, ends and D or L forms follow the SMILES beside them. *: point of attachment. Biotin = O=C1N[C@H]2[C@H](CS[C@H]2CCCCC(=O)*)N1

Experiments:
[1] = Peptide detection in brain cortex after photothrombotic ischemia; assay type: in vivo; conditions: 3 nmol/g i.v. 1 h after damage, male and female mice sacrificed 5 h post-stroke; Fluorescein Avidin D (Fig 5C)
Protocol: Vehicle (saline), Bio-TMyc or Bio-TT1Ct (3 nmol/g) were retro-orbitally injected in mice one hour after induction of photothrombotic damage or, alternatively, undamaged animals. In the first case, animals were sacrificed 5 h after damage induction while, the second group was sacrificed 30 min after peptide administration. The details of brain fixation and cryoprotection for peptide visualization and/or immunohistochemistry are provided in the Supplementary material. […]
Finally, the sa mple s were mounted in Prolong Diamond. The images were acquired using an inverted Zeiss LSM 710 laser confocal microscope (Jena, Germany) with a 40x or 63x Plan-Apochromatic oil immersion objective. Images corre spond to single se ctions and were normalized for eac h colour se para tely and process ed for presenta tion with ImageJ (NIH Image) and Fiji.
Peptide visualization and immunohistochemis tr y in brain cortex
For peptide visua liz ation in undamaged or damaged brains, animals were deeply anes thetized and intra cardially perfus ed with cold PBS and 4% paraformalde hyde in PBS. Brains were post-fixed in the sa m e fixative at 4°C for 24 h and cryoprote cted in 30% suc ros e for 48 h at 4°C. […]

[2] = Beam walking test after photothrombotic ischemia; assay type: in vivo, mice; conditions: male mice
pCREB = experiment: Western blot in excitotoxicity; assay type: cell-based, rat; conditions: peptide 15 µM 30 min, NMDA 30-120 min; normalized to NSE; differences not statistically significant compared to TMyc; n = 5
Protocol: (§1) amounts were combined with streptavidin-agarose beads previously was hed with NP-40 lysis buffer and incubated at room temperature for 1.5 h with agitation. Sedimented beads were was hed 3 times with the NP-40 lysis buffer to remove poss ible non-spe cifica lly bounded proteins, and peptides and their interacting proteins were released by incubation at 50°C for 40 min in RI P A modifie d buffer (50 mM Tris HCl pH 8.0, 150 mM NaC l, 1% sodium deoxycholate , 1% NP-40) combined with protease and phospha tase inhibitors as before .
(§2) Prote omic analysis of Bio-sT T1Ct-inte racting proteins
(§3) Prote omic analys is was performed in Pros taR (1.34.6) software tool, using the protocol for protein-level analys is. Prote omic abundanc es from 4 independent experiments were log-transforme d and filtered follow ing quality parameters: proteins present in at least >50% of one of the conditions and identifie d by at least 2 unique peptides . After, data was normalized by LOESS (locally es tima te d sc atterplot smoothing, k=0.7), and POV (par tially obse rved values ) and ME C (miss ing in entire condition values ) imputations were made using, respec tive ly, KNN (k-neares t-neighbour k=10) and det.quantile (quantile imputation using quantile = 2,5).
(§4) Differential analys is was performed using limma (3.16). Multiple comparison p-values where calibrated using sl i m algorithm and the FDR (fals e disc overy rate) is indicated for eac h comparison. For PCA (principal component analys is ), filte red, normalized and imputed data was use d corre cted for batch ef fe ct using removeBatc hEffe ct {limma} function. […]
(§5) dry milk solution in Tris Buffere d Saline-Tween (TBS-T, 20 mM Tris HCl pH 7.5, 137 mM NaC l, 0.05% Tween-20) and incubated overnight at 4°C with prima ry antibodies . […] To conclude, immunore activity was detecte d using Clar ity Wes ter n ECL Blotting Substrate (BioRad) and band intensity was quantified by dens itome tric analys is (Photos hop, Adobe). […] Multiple independent experiments were car r ied out and quantitated as detailed in the figure legends . […]

MEF2D = experiment: Western blot in excitotoxicity; assay type: cell-based, rat; conditions: peptide 15 µM 30 min, NMDA 30-120 min; normalized to NSE; differences not statistically significant compared to TMyc; n = 5
Protocol: as §1, §2, §3, §4, §5

TrkB-T1 = experiment: Western blot in excitotoxicity; assay type: cell-based, rat; conditions: peptide 15 µM 30 min, NMDA 30-120 min; compared to TMyc
Protocol: as §1, §2, §3, §4, §5

| Compound | Time of peptide detection in brain cortex after administration [1] | Recovery in beam walking test ([2]; TT1Ct versus TMyc slips) [%] | Number of slips ([2]; contralateral hind paw slips, beam walking 24 h after insult, 3 nmol/g i.v. 1 h after damage, mean ± SEM, n = 10-12) | Effect on pCREB levels (pCREB) | Effect on MEF2D levels (MEF2D) | Effect on TrkB-T1 regulation (TrkB-T1) |
| --- | --- | --- | --- | --- | --- | --- |
| CC[C@H](C)[C@H](NC(=O)[C@H](CC(C)C)NC(=O)[C@H](CCCCN)NC(=O)[C@H](CCC(N)=O)NC(=O)[C@H](CCC(=O)O)NC(=O)[C@H](CCC(=O)O)NC(=O)[C@H](C)NC(=O)[C@H](CCCNC(=N)N)NC(=O)[C@H](CCCNC(=N)N)NC(=O)[C@H](CCCNC(=N)N)NC(=O)[C@H](CCC(N)=O)NC(=O)[C@H](CCCNC(=N)N)NC(=O)[C@H](CCCNC(=N)N)NC(=O)[C@H](CCCCN)NC(=O)[C@H](CCCCN)NC(=O)[C@H](CCCNC(=N)N)NC(=O)CNC(=O)[C@H](Cc1ccc(O)cc1)NC(=O)CCCC[C@@H]1SC[C@@H]2NC(=O)N[C@@H]21)C(=O)N[C@@H](CO)C(=O)N[C@@H](CCC(=O)O)C(=O)N[C@@H](CCC(=O)O)C(=O)N[C@@H](CC(=O)O)C(=O)N[C@@H](CC(C)C)C(=O)N[C@@H](CC(C)C)C(=O)N[C@@H](CCCNC(=N)N)C(N)=O [Bio-TMyc, reference compound] (Biotin-YGRKKRRQRRRAEEQKLISEEDLLR-NH2) | at least 4 h |  |  |  |  |  |
| Ac-YGRKKRRQRRRPPFVLFHKIPLDG-NH2 [TT1Ct] |  | 49 | 5 ± 1 | partially preserved | partially preserved | did not have significant effects |
